Reference: patent US20240294541A1, “COMPOUNDS CONSTITUTING C20-MODIFIED SALINOMYCIN DERIVATIVES, A METHOD FOR OBTAINING THE SAME, A COMPOSITION CONTAINING THE SAME AND A USE OF SAID COMPOUNDS” (FILECLO SPOLKA Z OGRANICZONA ODPOWIEDZIALNOSCIA, priority 2021, published 2024)
Read-outs that look alike come from different tables or passages of the source.

How the values were obtained:
Assay type in all cases: cell-based
[1] = tested on: NCI-H23 (human lung cancer); assay: In vitro cytotoxicity, SRB assay, NCI-H23; conditions: for IC50: Homo sapiens; for NCI-H23 SI: selectivity coefficient vs normal BALB/3T3 cells
[2] = tested on: PFSK-1 (malignant primitive neuroectodermal tumour); assay: In vitro cytotoxicity, SRB assay, PFSK-1; conditions: for IC50: Homo sapiens; for PFSK-1 SI: selectivity coefficient vs normal BALB/3T3 cells
[3] = tested on: A2780 (human ovarian cancer); assay: In vitro cytotoxicity, SRB assay, A2780; conditions: for IC50: Homo sapiens; for A2780 SI: selectivity coefficient vs normal BALB/3T3 cells
[4] = tested on: A2780Cis (cisplatin-resistant human ovarian cancer); assay: In vitro cytotoxicity, SRB assay, A2780Cis; conditions: for IC50: Homo sapiens, A2780cis
[5] = tested on: A375 (human melanoma); assay: In vitro cytotoxicity, SRB assay, A375; conditions: for IC50: Homo sapiens; for A375 SI: selectivity coefficient vs normal BALB/3T3 cells
[6] = tested on: Hs294T (human melanoma); assay: cells; conditions: for IC50: Homo sapiens, Hs 294T, 72 h with compound, SRB, n/a = non-active compound, read-out: Hs294T IC50; for Hs294T SI: selectivity coefficient vs normal BALB/3T3 cells
[7] = tested on: PLC/PRF/5 (human liver cancer); assay: cells; conditions: for IC50: Homo sapiens, PLC-PRF-5, 72 h with compound, SRB, n/a = non-active compound, read-out: PLC/PRF/5 IC50; for PLC/PRF/5 SI: selectivity coefficient vs normal BALB/3T3 cells
[8] = tested on: SNU-16 (human gastric cancer); assay: cells; conditions: for IC50: Homo sapiens, SNU-16, 72 h with compound, MTT, n/a = non-active compound, read-out: SNU-16 IC50; for SNU-16 SI: selectivity coefficient vs normal BALB/3T3 cells
[9] = tested on: KG-1 (human acute myeloid leukaemia); assay: In vitro cytotoxicity, MTT assay, KG-1; conditions: for IC50: Homo sapiens, 72 h with compound, MTT, n/a = non-active compound; for KG-1 SI: selectivity coefficient vs normal BALB/3T3 cells
[10] = tested on: MIA PaCa-2 (human pancreatic cancer); assay: cells; conditions: for IC50: Homo sapiens, MIA PaCa-2, 72 h with compound, SRB, n/a = non-active compound, read-out: MIA PaCa-2 IC50; for MIA PaCa-2 SI: selectivity coefficient vs normal BALB/3T3 cells
[11] = tested on: BALB/3T3 (normal mouse fibroblasts); assay: In vitro cytotoxicity, SRB assay, normal BALB/3T3 fibroblasts
[12] = tested on: cancer cells; assay: In vitro cytotoxic activity on the panel of cancer cell lines (MTT/SRB), general statements; conditions: for anti-proliferative effect compared to that of the parent compound: Tables 3.1, 3.2, 4 and 5, parent compound salinomycin; for biological properties (IC50, SI) compared to the corresponding epi compounds: table 5 comparative examples, retained vs inverted C20 configuration
[13] = tested on: MV-4-11 (human biphenotypic leukaemia); assay: In vitro cytotoxicity, MTT assay, MV-4-11
[14] = NCI-H23, 72 h with compound, SRB, n/a = non-active compound, read-out: NCI-H23 IC50
[15] = PFSK-1, 72 h with compound, SRB, n/a = non-active compound, read-out: PFSK-1 IC50
[16] = A2780, 72 h with compound, SRB, n/a = non-active compound, read-out: A2780 IC50
[17] = 72 h, read-out: A2780Cis IC50 (nM)
[18] = A-375, 72 h with compound, SRB, n/a = non-active compound, read-out: A375 IC50
[19] = Mus musculus, BALB/3T3, normal cells, 72 h with compound, SRB, n/a = non-active compound, read-out: BALB/3T3 IC50
[20] = Table 5, BALB/3T3 normal mouse fibroblasts, read-out: IC50 (nM) BALB3T3 normal cells

Compound | IC50 [1, 14] [nM] | NCI-H23 SI [1] | PFSK-1 SI [2] | A2780 SI [3] | A2780Cis RI [4] | A2780Cis SI [4] | IC50 [4, 17] [nM] | A375 SI [5] | IC50 [6] [nM] | Hs294T SI [6] | IC50 [7] [nM] | PLC/PRF/5 SI [7] | IC50 [8] [nM] | SNU-16 SI [8] | IC50 [9] [nM] | KG-1 SI [9] | IC50 [10] [nM] | MIA PaCa-2 SI [10] | IC50 [11, 19] [nM] | anti-proliferative effect compared to that of the parent compound [12] | further results
CC[C@@H](C(=O)[C@@H](C)[C@@H](O)[C@H](C)[C@@H]1O[C@@H]([C@@H](CC)C(=O)O)CC[C@@H]1C)[C@H]1O[C@]2(C=C[C@@H](NC(=O)NC3CCC3)[C@]3(CC[C@@](C)([C@H]4CC[C@](O)(CC)[C@H](C)O4)O3)O2)[C@H](C)C[C@@H]1C [FLC-00341-1 Na] | 318 | 0.3 | 1.9 | 59.2 | 0.8 | 73.9 | 1.3 | 0.3 | 1640 | 0.1 | 54.5 | 1.8 | 27.1 | 3.5 | 45.9 | 2.1 | 55.4 | 1.7 | 96.2 | several times more potent compared to that of the parent compound | IC50 [2, 15]: 51.6 nM; IC50 [3, 16]: 1.62 nM; IC50 [5, 18]: 293 nM
CC[C@@H](C(=O)[C@@H](C)[C@@H](O)[C@H](C)[C@@H]1O[C@@H]([C@@H](CC)C(=O)O)CC[C@@H]1C)[C@H]1O[C@]2(C=C[C@@H](NC(=S)NCCCSC)[C@]3(CC[C@@](C)([C@H]4CC[C@](O)(CC)[C@H](C)O4)O3)O2)[C@H](C)C[C@@H]1C [FLC-00345-1] | 46.5 | 1.5 | 5.6 | 81.2 | 0.8 | 96.6 | 0.71 | 0.2 | 396 | 0.2 | 28 | 2.4 | 26 | 2.6 | 39.2 | 1.7 | 111 | 0.6 | 68.4 | several times more potent compared to that of the parent compound | IC50 [2, 15]: 12.3 nM; IC50 [3, 16]: 0.84 nM; IC50 [5, 18]: 400 nM
CC[C@@H](C(=O)[C@@H](C)[C@@H](O)[C@H](C)[C@@H]1O[C@@H]([C@@H](CC)C(=O)O)CC[C@@H]1C)[C@H]1O[C@]2(C=C[C@@H](NC(=S)NCc3ccccc3)[C@]3(CC[C@@](C)([C@H]4CC[C@](O)(CC)[C@H](C)O4)O3)O2)[C@H](C)C[C@@H]1C [FLC-00346-1] | – | 1.1 | 2.7 | 96.4 | 0.2 | 487.1 | 0.14 | 0.2 | 388 | 0.2 | 5.8 | 11.9 | 4.52 | 15.2 | 20.9 | 3.3 | 43.3 | 1.6 | 68.8 | several times more potent compared to that of the parent compound | IC50 ([1]; NCI-H23, 72 h, read-out: NCI-H23 IC50 (nM)): 60.3 nM; IC50 ([2]; PFSK-1, 72 h, read-out: PFSK-1 IC50 (nM)): 25.1 nM; IC50 ([3]; A2780, 72 h, read-out: A2780 IC50 (nM)): 0.71 nM; IC50 ([5]; A-375, 72 h, read-out: A375 IC50 (nM)): 393 nM
CC[C@@H](C(=O)[C@@H](C)[C@@H](O)[C@H](C)[C@@H]1O[C@@H]([C@@H](CC)C(=O)O)CC[C@@H]1C)[C@H]1O[C@]2(C=C[C@@H](NC(=S)Nc3ccc(C(F)(F)F)cc3)[C@]3(CC[C@@](C)([C@H]4CC[C@](O)(CC)[C@H](C)O4)O3)O2)[C@H](C)C[C@@H]1C [FLC-00347-1] | 5.51 | 13.3 | 16.1 | 79.0 | 0.3 | 264.7 | 0.28 | 0.8 | 103 | 0.7 | 5.87 | 12.5 | 13.5 | 5.4 | 14.1 | 5.2 | 44.3 | 1.7 | 73.2 | several times more potent compared to that of the parent compound | IC50 [2, 15]: 4.54 nM; IC50 [3, 16]: 0.93 nM; IC50 [5, 18]: 91.2 nM
CCCCCCCCNC(=O)N[C@@H]1C=C[C@]2(O[C@H]([C@@H](CC)C(=O)[C@@H](C)[C@@H](O)[C@H](C)[C@@H]3O[C@@H]([C@@H](CC)C(=O)O)CC[C@@H]3C)[C@@H](C)C[C@H]2C)O[C@@]12CC[C@@](C)([C@H]1CC[C@](O)(CC)[C@H](C)O1)O2 [FLC-00366-1] | 5.78 | 19.8 | 25.3 | 128.0 | 0.2 | 550.8 | 0.21 | 1.7 | 214 | 0.5 | 5.62 | 20.4 | 8.64 | 13.3 | 40.6 | 2.8 | 45 | 2.5 | 115 | – | IC50 [2, 15]: 4.53 nM; IC50 [3, 16]: 0.9 nM; SI A2780Cis [4]: 550.8; IC50 ([4]; read-out: IC50 (nM) A2780Cis): 0.21 nM; IC50 [5, 18]: 69.4 nM; IC50 [11, 20]: 115 nM; biological properties (IC50, SI) compared to the corresponding epi compounds [12]: improved biological properties compared to their counterparts with a configuration conversion
CC[C@@H](C(=O)[C@@H](C)[C@@H](O)[C@H](C)[C@@H]1O[C@@H]([C@@H](CC)C(=O)O)CC[C@@H]1C)[C@H]1O[C@]2(C=C[C@@H](NC(=O)Nc3ccccc3)[C@]3(CC[C@@](C)([C@H]4CC[C@](O)(CC)[C@H](C)O4)O3)O2)[C@H](C)C[C@@H]1C [FLC-00374-1] | 2.92 | 24.1 | 18.4 | 156.6 | 0.2 | 671.0 | 0.11 | 2.1 | 73.1 | 1.0 | 8.83 | 8.0 | 4.03 | 17.5 | 12.5 | 5.6 | 28.7 | 2.5 | 70.5 | several times more potent compared to that of the parent compound | IC50 [2, 15]: 3.83 nM; IC50 [3, 16]: 0.45 nM; SI A2780Cis [4]: 671.0; IC50 ([4]; read-out: IC50 (nM) A2780Cis): 0.11 nM; IC50 [5, 18]: 34.2 nM; IC50 [11, 20]: 70.5 nM; biological properties (IC50, SI) compared to the corresponding epi compounds [12]: improved biological properties compared to their counterparts with a configuration conversion
CCC(CC)NC(=S)N[C@@H]1C=C[C@]2(O[C@H]([C@@H](CC)C(=O)[C@@H](C)[C@@H](O)[C@H](C)[C@@H]3O[C@@H]([C@@H](CC)C(=O)O)CC[C@@H]3C)[C@@H](C)C[C@H]2C)O[C@@]12CC[C@@](C)([C@H]1CC[C@](O)(CC)[C@H](C)O1)O2 [FLC-00771-1•Na] | – | – | – | – | – | – | – | – | – | – | – | – | – | – | – | – | – | – | – | several times more potent compared to that of the parent compound | SI A2780Cis [4]: ≈8000; IC50 ([4]; read-out: IC50 (nM) A2780Cis): < 0.01 nM; IC50 [11, 20]: 80 nM; SI MV4-11 [13]: ≈8000; IC50 ([13]; Homo sapiens, MV4-11, read-out: IC50 (nM) MV4-11): < 0.01 nM
